Source: PubChem BioAssay (NCI)
“And” between values parts separate entries of the source, which are not always exact repeats. Identical values can stand only once.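 Five concentrations, 48 hours, 96-well plates. Abbreviation: GI50, concentration required for 50% inhibition of growth. TGI denotes the concentration required for complete inhibition of growth.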

Legend:
Assay in all cases: growth of human tumour cells (NCI), 48 h
[1] = system: OVCAR-3 ovarian
[2] = system: SK-MEL-5 melanoma
[3] = system: TK-10 renal
[4] = system: SW-620 colon
[5] = system: SF-295 CNS
[6] = system: 786-0 renal
[7] = system: SK-MEL-28 melanoma
[8] = system: MDA-MB-435
[9] = system: SF-268 CNS
[10] = system: CCRF-CEM leukemia

Row | Compound | GI50 [1] | TGI [1] | GI50 [2] | TGI [3] | GI50 [4] | TGI [4] | GI50 [5] | TGI [5] | GI50 [6] | TGI [6] | TGI [7] | GI50 [8] | TGI [8] | GI50 [9] | TGI [9] | GI50 [10] | TGI [2] | GI50 [3] | GI50 [7] | TGI [10]
1 | Nc1ccn(C2OC(CO)C(O)C2O)c(=O)n1 (configuration not stated) | 3.74 µM | > 100 µM and 500 µM and > 500 µM | 2.89 µM | > 500 µM | 0.847 µM | > 100 µM and 462 µM and > 500 µM | 0.661 µM | > 100 µM and 417 µM and > 500 µM | 0.396 µM | > 100 µM and 388 µM and > 500 µM | > 500 µM | 0.671 µM | > 500 µM | 1.01 µM | > 500 µM | < 0.0107 µM and 0.00608 µM and 0.0148 µM | – | – | – | –
2 | O=[N+]([O-])c1cccc2ccc(N/N=C/c3ccccc3O)nc12 | 4.48 µM | > 100 µM | > 100 µM | > 100 µM | 3.88 µM | > 100 µM | > 87.6 µM | > 100 µM | > 100 µM | > 100 µM | > 100 µM | > 100 µM | > 100 µM | > 100 µM | > 100 µM | – | > 100 µM | > 100 µM | > 100 µM | –
3 | COc1ccc(-c2cc(/C=C/C(=O)c3ccc(OC)c(OC)c3)[nH]n2)cc1 | 1.19 µM | 2.47 µM | 1.77 µM | 4.31 µM | 1.35 µM | 3.59 µM | 2.08 µM | 5.37 µM | 1.6 µM | 3.09 µM | 3.07 µM | 1.84 µM | 3.88 µM | 1.94 µM | 4.83 µM | 1.34 µM | 3.72 µM | 2.11 µM | 1.65 µM | 4.14 µM
4 | CN(C)CCSc1cc(-c2ccccc2)c2ccccc2n1 | – | – | – | 19.4 µM | – | 23.2 µM | – | 28 µM | – | 25.2 µM | 17.9 µM | – | 22.1 µM | – | 27.1 µM | – | 4.7 µM | – | – | 33.3 µM
5 | COC(=O)c1ccc(-c2c(C#N)[n+](=O)c3cc(Cl)c(Cl)cc3n2[O-])cc1 | 11 µM | 27.8 µM | 22 µM | 95.1 µM | 17.8 µM | 45.4 µM | 12.5 µM | 33.7 µM | 17.6 µM | 35.6 µM | 34.8 µM | 17.9 µM | 37 µM | 16.4 µM | 32.1 µM | 2.85 µM | 47.7 µM | 33.6 µM | 17.2 µM | 7.79 µM
6 | CC(C)OC(=O)[C@H](C)NP(=O)(OC[C@H]1O[C@@H](n2ccc(=O)[nH]c2=O)[C@](C)(F)[C@@H]1O)Oc1ccccc1 (some centres not stated) | > 100 µM | > 100 µM | > 100 µM | > 100 µM | > 100 µM | > 100 µM | > 100 µM | > 100 µM | > 100 µM | > 100 µM | > 100 µM | > 100 µM | > 100 µM | > 100 µM | > 100 µM | > 100 µM | > 100 µM | > 100 µM | > 100 µM | > 100 µM
7 | S=c1[nH]c2c(Cl)c(Cl)c(Cl)c(Cl)c2[nH]1 | – | 97.3 µM | – | 55.4 µM | – | 49.2 µM | – | 47.1 µM | – | 63.3 µM | – | – | 48.8 µM | – | 42.7 µM | – | 37.2 µM | – | – | 19.5 µM
